ChEMBL document CHEMBL4507257, “Data for DCP probe ABT-100” (2021)

Columns and labels:
[1] = target: Transient receptor potential cation channel subfamily M member 6 (Homo sapiens) (UniProt Q9BX84); details: Compound concentration 1000.0 nM
[2] = target: Tyrosine-protein kinase BTK (Homo sapiens) (UniProt Q06187); details: Compound concentration 1000.0 nM
[3] = target: Proto-oncogene tyrosine-protein kinase receptor Ret (Homo sapiens) (UniProt P07949); details: Compound concentration 1000.0 nM
[4] = target: Mitogen-activated protein kinase 7 (Homo sapiens) (UniProt Q13164); details: Compound concentration 1000.0 nM
[5] = target: Cyclin-dependent kinase 17 (Homo sapiens) (UniProt Q00537); details: Compound concentration 1000.0 nM
[6] = target: LIM domain kinase 1 (Homo sapiens) (UniProt P53667); details: Compound concentration 1000.0 nM
[7] = target: 5-hydroxytryptamine receptor 1B (Homo sapiens) (UniProt P28222); details: Compound concentration 10.0 uM
[8] = target: Platelet-derived growth factor receptor alpha (Homo sapiens) (UniProt P16234); details: Compound concentration 1000.0 nM
[9] = target: cGMP-dependent protein kinase 2 (Homo sapiens) (UniProt Q13237); details: Compound concentration 1000.0 nM
[10] = target: ALK tyrosine kinase receptor (Homo sapiens) (UniProt Q9UM73); details: Compound concentration 1000.0 nM
[11] = target: BDNF/NT-3 growth factors receptor (Homo sapiens) (UniProt Q16620); details: Compound concentration 1000.0 nM
[12] = target: Insulin receptor-related protein (Homo sapiens) (UniProt P14616); details: Compound concentration 1000.0 nM
[13] = target: Serine/threonine-protein kinase Nek1 (Homo sapiens) (UniProt Q96PY6); details: Compound concentration 1000.0 nM
[14] = target: Serine/threonine-protein kinase Nek5 (Homo sapiens) (UniProt Q6P3R8); details: Compound concentration 1000.0 nM
[15] = system: Phosphatidylinositol 4,5-bisphosphate 3-kinase catalytic subunit alpha isoform (Homo sapiens), P42336 [H1047Y]; details: Compound concentration 1000.0 nM
[16] = target: Serine/threonine-protein kinase VRK2 (Homo sapiens) (UniProt Q86Y07); details: Compound concentration 1000.0 nM
[17] = system: Epidermal growth factor receptor (Homo sapiens), P00533 [G719S]; details: Compound concentration 1000.0 nM
[18] = target: Ephrin type-A receptor 4 (Homo sapiens) (UniProt P54764); details: Compound concentration 1000.0 nM
[19] = target: Mitogen-activated protein kinase kinase kinase 9 (Homo sapiens) (UniProt P80192); details: Compound concentration 1000.0 nM
[20] = target: NT-3 growth factor receptor (Homo sapiens) (UniProt Q16288); details: Compound concentration 1000.0 nM
[21] = target: Hormonally up-regulated neu tumor-associated kinase (Homo sapiens) (UniProt P57058); details: Compound concentration 1000.0 nM
[22] = system: Receptor-type tyrosine-protein kinase FLT3 (Homo sapiens), P36888 [D835H]; details: Compound concentration 1000.0 nM
[23] = target: Serine/threonine-protein kinase SBK1 (Homo sapiens) (UniProt Q52WX2); details: Compound concentration 1000.0 nM
[24] = target: Casein kinase II subunit alpha' (Homo sapiens) (UniProt P19784); details: Compound concentration 1000.0 nM
[25] = target: Serine/threonine-protein kinase WNK1 (Homo sapiens) (UniProt Q9H4A3); details: Compound concentration 1000.0 nM
[26] = target: Hepatocyte growth factor receptor (Homo sapiens) (UniProt P08581); details: Compound concentration 1000.0 nM
[27] = target: T1, 5-hydroxytryptamine receptor 2C (Homo sapiens) (UniProt P28335); details: Compound concentration 10.0 uM
T1 sequence (whole entry): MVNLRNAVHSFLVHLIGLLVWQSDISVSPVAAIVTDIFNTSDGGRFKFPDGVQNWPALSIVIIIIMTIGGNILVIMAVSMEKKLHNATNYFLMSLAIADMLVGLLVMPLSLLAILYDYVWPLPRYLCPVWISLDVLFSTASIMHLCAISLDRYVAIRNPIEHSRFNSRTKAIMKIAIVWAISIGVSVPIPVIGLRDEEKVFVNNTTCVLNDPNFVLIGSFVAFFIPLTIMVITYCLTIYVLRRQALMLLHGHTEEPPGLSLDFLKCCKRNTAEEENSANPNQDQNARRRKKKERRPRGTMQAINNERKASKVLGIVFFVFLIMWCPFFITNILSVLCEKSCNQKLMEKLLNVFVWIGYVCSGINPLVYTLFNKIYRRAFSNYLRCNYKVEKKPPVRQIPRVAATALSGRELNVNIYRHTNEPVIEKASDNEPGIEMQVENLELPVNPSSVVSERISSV

[28] = target: Cyclin-G-associated kinase (Homo sapiens) (UniProt O14976); details: Compound concentration 1000.0 nM
[29] = system: Phosphatidylinositol 4,5-bisphosphate 3-kinase catalytic subunit alpha isoform (Homo sapiens), P42336 [E545K]; details: Compound concentration 1000.0 nM
[30] = target: Atypical kinase COQ8B, mitochondrial (Homo sapiens) (UniProt Q96D53); details: Compound concentration 1000.0 nM
[31] = target: Receptor-type tyrosine-protein kinase FLT3 (Homo sapiens) (UniProt P36888); details: Compound concentration 1000.0 nM
[32] = target: Tyrosine-protein kinase JAK2 (Homo sapiens) (UniProt O60674); details: Compound concentration 1000.0 nM
[33] = system: Epidermal growth factor receptor (Homo sapiens), P00533 [UNDEFINED MUTATION]; details: Compound concentration 1000.0 nM
[34] = target: Ephrin type-B receptor 2 (Homo sapiens) (UniProt P29323); details: Compound concentration 1000.0 nM
[35] = target: Receptor tyrosine-protein kinase erbB-4 (Homo sapiens) (UniProt Q15303); details: Compound concentration 1000.0 nM
[36] = target: Misshapen-like kinase 1 (Homo sapiens) (UniProt Q8N4C8); details: Compound concentration 1000.0 nM
[37] = system: Tyrosine-protein kinase ABL1 (Homo sapiens), P00519 [M351T]; details: Compound concentration 1000.0 nM
[38] = target: Receptor tyrosine-protein kinase erbB-3 (Homo sapiens) (UniProt P21860); details: Compound concentration 1000.0 nM
[39] = target: Ephrin type-B receptor 4 (Homo sapiens) (UniProt P54760); details: Compound concentration 1000.0 nM

Sequence of Receptor tyrosine-protein kinase erbB-4 (Homo sapiens) (Q15303 whole entry): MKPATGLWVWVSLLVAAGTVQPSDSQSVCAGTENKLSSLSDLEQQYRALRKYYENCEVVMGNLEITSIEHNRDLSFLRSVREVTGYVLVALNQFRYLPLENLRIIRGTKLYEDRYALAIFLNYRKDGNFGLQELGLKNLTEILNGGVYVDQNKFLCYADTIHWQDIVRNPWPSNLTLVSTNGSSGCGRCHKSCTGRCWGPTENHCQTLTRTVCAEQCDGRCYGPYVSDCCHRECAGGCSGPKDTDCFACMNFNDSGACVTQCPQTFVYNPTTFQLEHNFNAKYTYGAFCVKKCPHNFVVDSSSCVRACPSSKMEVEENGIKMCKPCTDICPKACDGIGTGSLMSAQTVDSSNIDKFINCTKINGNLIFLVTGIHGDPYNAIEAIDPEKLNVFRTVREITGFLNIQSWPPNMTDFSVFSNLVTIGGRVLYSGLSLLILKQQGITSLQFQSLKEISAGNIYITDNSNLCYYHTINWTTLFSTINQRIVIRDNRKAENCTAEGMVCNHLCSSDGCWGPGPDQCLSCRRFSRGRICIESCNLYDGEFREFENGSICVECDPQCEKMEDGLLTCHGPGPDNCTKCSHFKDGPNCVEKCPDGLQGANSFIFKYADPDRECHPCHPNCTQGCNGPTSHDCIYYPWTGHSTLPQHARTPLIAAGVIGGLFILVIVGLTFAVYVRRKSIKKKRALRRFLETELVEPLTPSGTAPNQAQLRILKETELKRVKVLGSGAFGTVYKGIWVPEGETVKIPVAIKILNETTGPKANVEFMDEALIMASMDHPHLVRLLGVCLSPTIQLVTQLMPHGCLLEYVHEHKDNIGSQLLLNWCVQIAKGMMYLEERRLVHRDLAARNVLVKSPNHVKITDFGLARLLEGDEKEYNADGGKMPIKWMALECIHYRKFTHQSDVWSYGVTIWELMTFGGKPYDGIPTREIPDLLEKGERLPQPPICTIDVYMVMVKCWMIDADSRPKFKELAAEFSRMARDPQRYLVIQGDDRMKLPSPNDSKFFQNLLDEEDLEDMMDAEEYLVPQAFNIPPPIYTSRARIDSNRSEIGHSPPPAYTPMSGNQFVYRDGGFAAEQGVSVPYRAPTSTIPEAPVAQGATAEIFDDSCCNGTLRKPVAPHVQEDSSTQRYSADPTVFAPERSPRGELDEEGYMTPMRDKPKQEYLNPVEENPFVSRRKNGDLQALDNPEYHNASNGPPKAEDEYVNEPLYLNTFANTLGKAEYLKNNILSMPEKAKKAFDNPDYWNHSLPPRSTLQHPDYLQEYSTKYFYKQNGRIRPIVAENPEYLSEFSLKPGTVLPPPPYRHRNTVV
Sequence of Tyrosine-protein kinase BTK (Homo sapiens) (Q06187 whole entry): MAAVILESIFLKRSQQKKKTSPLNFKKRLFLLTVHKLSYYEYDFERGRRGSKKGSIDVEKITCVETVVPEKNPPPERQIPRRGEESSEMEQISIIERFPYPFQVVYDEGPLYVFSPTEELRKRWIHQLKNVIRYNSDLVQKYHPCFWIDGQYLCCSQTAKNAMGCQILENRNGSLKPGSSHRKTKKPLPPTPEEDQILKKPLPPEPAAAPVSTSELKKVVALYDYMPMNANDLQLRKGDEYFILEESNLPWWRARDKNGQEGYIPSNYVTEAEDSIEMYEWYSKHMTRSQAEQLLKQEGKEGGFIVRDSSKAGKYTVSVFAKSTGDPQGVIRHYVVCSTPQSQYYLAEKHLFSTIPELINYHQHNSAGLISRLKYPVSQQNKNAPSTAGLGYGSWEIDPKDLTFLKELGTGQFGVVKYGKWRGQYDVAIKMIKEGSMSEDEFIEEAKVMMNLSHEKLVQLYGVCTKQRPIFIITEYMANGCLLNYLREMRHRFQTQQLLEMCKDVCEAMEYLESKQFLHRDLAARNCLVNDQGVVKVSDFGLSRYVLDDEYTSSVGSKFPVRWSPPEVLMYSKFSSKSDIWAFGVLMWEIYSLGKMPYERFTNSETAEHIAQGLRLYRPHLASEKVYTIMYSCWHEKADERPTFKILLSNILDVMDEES
Sequence of Platelet-derived growth factor receptor alpha (Homo sapiens) (P16234 whole entry): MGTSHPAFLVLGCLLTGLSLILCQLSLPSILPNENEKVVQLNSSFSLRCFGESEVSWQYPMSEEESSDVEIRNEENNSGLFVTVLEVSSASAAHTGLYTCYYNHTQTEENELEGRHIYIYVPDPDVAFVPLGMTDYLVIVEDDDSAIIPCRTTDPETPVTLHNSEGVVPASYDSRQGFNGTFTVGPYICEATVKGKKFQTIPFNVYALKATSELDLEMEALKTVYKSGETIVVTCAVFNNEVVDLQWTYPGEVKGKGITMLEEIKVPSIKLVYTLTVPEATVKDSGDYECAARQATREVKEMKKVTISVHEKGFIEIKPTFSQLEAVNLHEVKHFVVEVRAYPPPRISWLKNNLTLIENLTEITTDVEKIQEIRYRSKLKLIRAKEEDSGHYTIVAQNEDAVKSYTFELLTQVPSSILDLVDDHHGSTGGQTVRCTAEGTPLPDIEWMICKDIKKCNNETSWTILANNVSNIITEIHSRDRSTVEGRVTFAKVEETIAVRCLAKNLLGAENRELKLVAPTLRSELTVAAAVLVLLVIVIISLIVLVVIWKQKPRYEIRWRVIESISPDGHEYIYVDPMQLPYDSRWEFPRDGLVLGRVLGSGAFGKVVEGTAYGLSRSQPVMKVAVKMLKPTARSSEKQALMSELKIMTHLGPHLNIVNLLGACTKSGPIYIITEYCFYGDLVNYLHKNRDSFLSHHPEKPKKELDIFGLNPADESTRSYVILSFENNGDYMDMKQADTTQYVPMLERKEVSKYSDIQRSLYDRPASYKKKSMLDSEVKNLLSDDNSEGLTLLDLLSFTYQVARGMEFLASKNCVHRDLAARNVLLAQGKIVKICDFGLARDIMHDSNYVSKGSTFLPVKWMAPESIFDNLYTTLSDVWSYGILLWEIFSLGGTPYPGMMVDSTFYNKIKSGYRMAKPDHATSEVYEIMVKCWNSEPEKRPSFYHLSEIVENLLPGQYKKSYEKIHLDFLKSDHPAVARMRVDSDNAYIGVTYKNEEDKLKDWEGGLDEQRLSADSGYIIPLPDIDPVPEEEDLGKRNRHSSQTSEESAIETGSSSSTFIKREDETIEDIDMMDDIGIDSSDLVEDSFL
Sequence of Serine/threonine-protein kinase SBK1 (Homo sapiens) (Q52WX2 whole entry): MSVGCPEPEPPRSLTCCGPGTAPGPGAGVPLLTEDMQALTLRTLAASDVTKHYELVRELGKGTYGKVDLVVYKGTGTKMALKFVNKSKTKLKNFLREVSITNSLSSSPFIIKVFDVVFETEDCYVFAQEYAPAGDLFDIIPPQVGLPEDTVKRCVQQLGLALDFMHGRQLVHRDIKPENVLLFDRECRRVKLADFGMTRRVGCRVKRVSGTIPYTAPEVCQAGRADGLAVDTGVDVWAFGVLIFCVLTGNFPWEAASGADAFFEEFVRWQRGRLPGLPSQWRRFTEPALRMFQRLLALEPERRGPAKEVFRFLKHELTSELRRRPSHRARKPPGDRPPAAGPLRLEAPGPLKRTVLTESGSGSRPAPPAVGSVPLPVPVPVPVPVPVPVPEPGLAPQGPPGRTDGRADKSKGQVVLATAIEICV
Sequence of Cyclin-dependent kinase 17 (Homo sapiens) (Q00537 whole entry, looked up, the tested form may be a part): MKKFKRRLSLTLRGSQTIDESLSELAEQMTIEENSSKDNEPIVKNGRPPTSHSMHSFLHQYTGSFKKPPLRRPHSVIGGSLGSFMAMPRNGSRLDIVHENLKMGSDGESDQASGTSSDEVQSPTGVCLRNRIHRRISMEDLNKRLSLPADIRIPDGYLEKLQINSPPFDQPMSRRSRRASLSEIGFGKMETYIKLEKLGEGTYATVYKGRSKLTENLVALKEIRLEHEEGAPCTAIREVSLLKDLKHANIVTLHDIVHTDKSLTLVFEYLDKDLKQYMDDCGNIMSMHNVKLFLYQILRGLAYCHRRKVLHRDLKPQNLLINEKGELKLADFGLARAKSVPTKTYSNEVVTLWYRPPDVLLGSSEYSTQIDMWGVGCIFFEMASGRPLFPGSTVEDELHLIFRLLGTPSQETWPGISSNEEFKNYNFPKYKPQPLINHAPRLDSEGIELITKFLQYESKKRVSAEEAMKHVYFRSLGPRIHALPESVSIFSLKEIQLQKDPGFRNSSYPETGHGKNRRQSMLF
Sequence of Phosphatidylinositol 4,5-bisphosphate 3-kinase catalytic subunit alpha isoform (Homo sapiens), P42336 [H1047Y] (P42336 whole entry H1047Y, canonical isoform): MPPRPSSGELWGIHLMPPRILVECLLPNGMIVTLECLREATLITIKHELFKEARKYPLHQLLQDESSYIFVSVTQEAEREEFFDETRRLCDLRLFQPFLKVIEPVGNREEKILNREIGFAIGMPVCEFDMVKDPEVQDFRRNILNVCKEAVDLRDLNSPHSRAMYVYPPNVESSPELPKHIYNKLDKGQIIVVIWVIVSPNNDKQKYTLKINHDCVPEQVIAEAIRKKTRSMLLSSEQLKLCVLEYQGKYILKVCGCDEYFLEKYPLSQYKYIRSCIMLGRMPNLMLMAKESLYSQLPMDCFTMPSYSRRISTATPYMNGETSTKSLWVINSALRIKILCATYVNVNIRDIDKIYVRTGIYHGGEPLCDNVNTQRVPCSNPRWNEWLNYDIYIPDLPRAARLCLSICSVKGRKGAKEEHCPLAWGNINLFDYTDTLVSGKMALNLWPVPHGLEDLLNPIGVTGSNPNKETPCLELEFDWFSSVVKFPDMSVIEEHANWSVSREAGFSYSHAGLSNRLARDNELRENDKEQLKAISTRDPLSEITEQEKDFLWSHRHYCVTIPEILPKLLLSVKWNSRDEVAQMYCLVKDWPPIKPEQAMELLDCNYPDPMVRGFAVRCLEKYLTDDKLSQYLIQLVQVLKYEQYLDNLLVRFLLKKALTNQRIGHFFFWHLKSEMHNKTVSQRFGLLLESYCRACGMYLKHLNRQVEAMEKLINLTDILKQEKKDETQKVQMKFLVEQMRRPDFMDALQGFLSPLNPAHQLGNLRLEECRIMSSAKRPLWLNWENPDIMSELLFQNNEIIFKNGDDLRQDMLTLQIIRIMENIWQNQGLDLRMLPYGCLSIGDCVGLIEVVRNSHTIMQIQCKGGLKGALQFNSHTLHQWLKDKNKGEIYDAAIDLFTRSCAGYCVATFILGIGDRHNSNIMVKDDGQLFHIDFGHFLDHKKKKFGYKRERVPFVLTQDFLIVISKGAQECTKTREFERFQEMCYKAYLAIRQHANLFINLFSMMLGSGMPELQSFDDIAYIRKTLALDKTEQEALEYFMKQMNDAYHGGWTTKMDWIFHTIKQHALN

Row | Structure (SMILES) | residual activity [1] | residual activity [2] | residual activity [3] | residual activity [4] | residual activity [5] | residual activity [6] | inhibition [7] | residual activity [8] | residual activity [9] | residual activity [10] | residual activity [11] | residual activity [12] | residual activity [13] | residual activity [14] | residual activity [15] | residual activity [16] | residual activity [17] | residual activity [18] | residual activity [19] | residual activity [20] | other results
1 | Cn1cncc1[C@@](O)(COc1ccc(C#N)cc1-c1ccc(OC(F)(F)F)cc1)c1ccc(C#N)cc1 [A-108] | 100% | 82% | 100% | 93% | 95% | 100% | 3.34% | 100% | 87% | 70% | 88% | 96% | 100% | 98% | 100% | 95% | 74% | 12% | 98% | 99% | residual activity [21]: 100%; residual activity [22]: 67%; residual activity [23]: 100%; residual activity [24]: 100%; residual activity [25]: 100%; residual activity [26]: 94%; inhibition [27]: 17.1%; residual activity [28]: 91%; residual activity [29]: 80%; residual activity [30]: 100%; residual activity [31]: 100%; residual activity [32]: 65%; residual activity [33]: 100%; residual activity [34]: 100%; residual activity [35]: 100%; residual activity [36]: 100%; residual activity [37]: 6.2%; residual activity [38]: 89%; residual activity [39]: 100%
2 | Cn1cncc1[C@](O)(COc1ccc(C#N)cc1-c1ccc(OC(F)(F)F)cc1)c1ccc(C#N)cc1 [ABT-100] | 100% | 92% | 94% | 93% | 100% | 89% | -4.28% | 100% | 100% | 100% | 92% | 93% | 80% | 72% | 77% | 70% | 79% | 100% | 81% | 80% | residual activity [21]: 68%; residual activity [22]: 84%; residual activity [23]: 100%; residual activity [24]: 100%; residual activity [25]: 100%; residual activity [26]: 74%; inhibition [27]: 0.26%; residual activity [28]: 97%; residual activity [29]: 97%; residual activity [30]: 72%; residual activity [31]: 87%; residual activity [32]: 91%; residual activity [33]: 76%; residual activity [34]: 94%; residual activity [35]: 81%; residual activity [36]: 94%; residual activity [37]: 100%; residual activity [38]: 87%; residual activity [39]: 98%
